In patent publication US20250051375A1, “ANTI-HIV COMPOUNDS” (Gilead Sciences, Inc., priority 2023, published 2025):
Values after ≈ are worked out from the molar mass of the structure shown. Like-named read-outs stand apart in the source and are kept apart here.

Tests used:
[1] = molecular target: bovine intestinal alkaline phosphatase (Bos taurus (Bovine), UniProt P19111); assay: BiALP: conversion by bovine intestinal alkaline phosphatase; assay type: in vitro ADME; settings: 2 μM substrate, 100 ng/mL iALP, Tris pH 7.8, 37° C., 60 minutes; for [Intermediate A] or [Amprenavir]: parent formed
Chain of bovine intestinal alkaline phosphatase (P19111 20-506): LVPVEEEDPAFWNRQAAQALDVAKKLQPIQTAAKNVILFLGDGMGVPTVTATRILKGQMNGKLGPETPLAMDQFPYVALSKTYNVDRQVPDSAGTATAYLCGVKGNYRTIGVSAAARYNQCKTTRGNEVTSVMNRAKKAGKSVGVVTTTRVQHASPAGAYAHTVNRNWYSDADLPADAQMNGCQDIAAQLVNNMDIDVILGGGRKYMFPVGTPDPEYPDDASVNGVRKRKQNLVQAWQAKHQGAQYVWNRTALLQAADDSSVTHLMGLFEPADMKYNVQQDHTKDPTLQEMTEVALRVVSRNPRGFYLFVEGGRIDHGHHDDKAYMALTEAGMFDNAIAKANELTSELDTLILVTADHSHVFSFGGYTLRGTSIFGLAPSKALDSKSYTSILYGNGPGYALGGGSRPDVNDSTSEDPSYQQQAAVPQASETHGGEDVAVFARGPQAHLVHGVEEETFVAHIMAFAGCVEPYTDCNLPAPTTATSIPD
Summary of the method: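 LC-MS (positive mode) quantified analyte/internal-standard peak area ratios, referenced to 2 μM parent product. This followed a 60 min, 37° C reaction of 2 μM substrate in Tris buffer pH 7.8 (1 mM MgCl2, 1 mM ZnCl2) containing 100 ng/mL iALP or buffer alone, run in triplicate.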

[2] = Intestinal S9 Assay (dog GI S9); assay type: in vitro ADME; settings: 1.0 mg/mL S9 protein; for half-life at 2 μM: dog, TRIS pH 7.4, read-out: Dog GI S9 T½; for Dog GI S9 [Intermediate A] / Dog GI S9 [Intermediate A] %: 2 μM, TRIS pH 7.4
Description: (§1) Reagents. Stock solutions of test compounds in dimethyl sulfoxide (DMSO) having a final concentration of 10 mM were prepared and used in all experiments. Sekisui XenoTech (Kansas City, KS) provided pooled intestinal S9 fractions. All other chemicals were purchased from Sigma-Aldrich (St. Louis, MO) or VWR (West Chester, PA). Internal Standard/Quench (IS/Q) used to stop reactions was 100 nM labetalol in (by volume) formic acid (1%) and acetonitrile (99%).
(§2) Intestinal S9 Assay: For each test compound, an aliquot of the test compound was added to S9 stock diluted with TRIS buffer (100 mM TRIS, 1 mM ZnCl2, 1 mM MgCl2), pH 7.4, to obtain an incubation protein concentration of 1.0 mg/mL. The incubation was initiated by the addition of the substrate to the S9 reaction mixture to a final concentration of 2 μM. At 0, 10, 20, 30, 60 and 120 min, 25 μL aliquots of the reaction mixture were transferred to plates containing 225 μl of IS/Q solution. After quenching, the plates were centrifuged at 3000×g for 30 minutes. 150 μL aliquots of each supernatant were transferred to new plates and 150 μL water was added. Aliquots (10 μL) of the prepared samples were analyzed on a Thermo Q-Exactive mass spectrometer as described below.
(§3) Liquid Chromatography-Mass Spectrometry: Quantification of test compounds and control substrate was performed by analyte/internal standard peak area ratio (PAR) values measured on a Thermo Q-Exactive mass spectrometer coupled to a Dionex UltiMate 3000 HPLC with a Leap Technologies HTC PAL autosampler. The column used for analysis was a Thermo Scientific Hypersil GOLD (1.9 μm particle size, 50×2.1 mm). Mobile phase A consisted of 0.1% (v/v) formic acid in water. Mobile phase B consisted of 0.1% (v/v) formic acid in acetonitrile. Elution of analytes was achieved by a series of linear gradients varying the proportions of A and B. The mass spectrometer was calibrated on a weekly basis and mass tolerance of 5 ppm was used.
(§4) Data Analysis. Metabolic stabilities were determined by measuring the rates of disappearance of test compound and positive control substrate. Data (% of substrate remaining) were plotted on a semi-log scale and fitted using an exponential decline model:
(§5) where • Ct% of substrate remaining at time=t • C0% of substrate remaining at time=0 • t time • T½ half-life • The Half-life (T½) is determined by the following equation:
(§6) [formula] • Assuming a first-order reaction, the slope (k) is extrapolated from the aforementioned plotted data.

PBS Stability Assay = assay type: physicochemical; settings: buffer, pH 7.4, 2 μM, phosphate buffered saline pH 7.4; read-out: PBS T½
Summary of the method: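 Half-life derives from first-order exponential decline of % compound remaining, quantified by LC-MS analyte/internal-standard peak-area ratio. Compound (2 μM final) sat in pH 7.4 phosphate-buffered saline, with aliquots quenched into acidified acetonitrile containing labetalol from 0 to 120 min.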

[3] = Intestinal S9 Assay (human GI S9); assay type: in vitro ADME; settings: 1.0 mg/mL S9 protein; for half-life at 2 μM: human, TRIS pH 7.4, read-out: Human GI S9 T½; for Human GI S9 [Intermediate A] / Human GI S9 [Intermediate A] %: 2 μM, TRIS pH 7.4
Description: as §1, §2, §3, §4, §5, §6

Solubility in FaSSIF = settings: 23 °C, pH 6.5, fassif, thermodynamic from solid
Summary of the method: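 Concentration measured by HPLC-UV after solid compound was dosed at 5 mg/mL into pH 6.5 fasted-state simulated intestinal fluid containing taurocholate and lecithin (4:1 molar) and vortexed.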

HIV-1 IIIB strain = assay: MT-4 HIV Wild Type Virus Infection Assay (IIIB Virus); assay type: cell-based; settings: Human immunodeficiency virus 1, IIIB, MT4, 120 h, MT-4 cells acutely infected with HIV-1 IIIB, 5 day incubation, Cell-titer glo
Summary of the method: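 MT-4 cells at 2×10^6 cells/ml in RPMI/10% FBS were acutely infected with HIV-1 IIIB for 1 h at 37° C, diluted 25× and added to serially diluted compounds. After 5 days at 37° C, viability read by CellTiter-Glo luminescence; EC50 from dose-response curves.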

Row | Compound | [Compound] [1] | half-life at 2 μM [2] | half-life at 2 μM (PBS Stability Assay) | half-life at 2 μM [3] | solubility at 2 h (Solubility in FaSSIF) | EC50 (HIV-1 IIIB strain) | biALP Intermediate A or [Amprenavir] (% of total) [1] | [Intermediate A] or [Amprenavir] [1] | Dog GI S9 [Intermediate A] [2] | Dog GI S9 [Intermediate A] % [2] | Human GI S9 [Intermediate A] [3] | Human GI S9 [Intermediate A] % [3] | solubility (Solubility in FaSSIF; FaSSIF (pH 6.5) solubility, FaSSIF pH 6.5, dose 5 mg/mL, 2-hour incubation, ambient temperature) | EC50 (HIV-1 IIIB strain; read-out: EC50)
1 | COC(=O)N[C@H](C(=O)N[C@@H](Cc1ccc(C#Cc2ccc(N3CC4CCC(C3)N4C3COC3)nc2)cc1)[C@H](CN(Cc1c(F)cc(-c2ccn(C(F)F)n2)cc1F)NC(=O)[C@@H](NC(=O)OC)C(C)(C)C(F)(F)F)OC(=O)CC(C)(C)c1c(CC(=O)Nc2cccc(C(=O)OO)c2)cc(C)cc1CP(=O)(O)O)C(C)(C)C(F)(F)F [Example 15] | 2690.4 nM | 3.95 h | 4.8 h | 8.95 h | < 1000 µg/mL | 162 nM |  |  |  |  |  |  |  | 
2 | COC(=O)N[C@H](C(=O)N[C@@H](Cc1ccc(C#Cc2cnc(N3CC4CCC(C3)N4C3COC3)nc2)cc1)[C@H](CN(Cc1c(F)cc(-c2ccn(C(F)F)n2)cc1F)NC(=O)[C@@H](NC(=O)OC)C(C)(C)C(F)(F)F)OC(=O)CC(C)(C)c1c(CC(=O)N[C@@H](CS(=O)(=O)O)C(=O)O)cc(C)cc1OP(=O)(O)O)C(C)(C)C(F)(F)F [Example 32] |  | 1 h | 5.18 h | 3.87 h | 3400 µg/mL (≈ 2080 µM) | 137 nM |  |  |  |  |  |  |  | 
3 | COC(=O)N[C@H](C(=O)N[C@@H](Cc1ccc(C#Cc2cnc(N3CC4CCC(C3)N4C3COC3)nc2)cc1)[C@H](CN(Cc1c(F)cc(-c2ccn(C(F)F)n2)cc1F)NC(=O)[C@@H](NC(=O)OC)C(C)(C)C(F)(F)F)OC(=O)CC(C)(C)c1c(CC(=O)N[C@@H](CCC(=O)O)C(=O)O)cccc1OP(=O)(O)O)C(C)(C)C(F)(F)F [Example 6] | 1304.1 nM | 0.393 h | 10.9 h | 2.57 h | 3710 µg/mL (≈ 2320 µM) | 20.7 nM | 19 % of total | 306.6 nM | 1236 nM | 93.8% | 363.6 nM | 28.2% |  | 
4 | COC(=O)N[C@H](C(=O)N[C@@H](Cc1ccc(C#Cc2cnc(N3CC4CCC(C3)N4C3COC3)nc2)cc1)[C@H](CN(Cc1c(F)cc(-c2ccn(C(F)F)n2)cc1F)NC(=O)[C@@H](NC(=O)OC)C(C)(C)C(F)(F)F)OC(=O)CC(C)(C)c1c(CC(=O)O)cc(C)cc1OP(=O)(O)O)C(C)(C)C(F)(F)F [Example 4] | 1627.4 nM | 1.69 h | 9.43 h | 7.74 h |  |  |  |  |  |  |  |  | 272 µg/mL (≈ 183 µM) | 20.7 nM
5 | COC(=O)N[C@H](C(=O)N[C@@H](Cc1ccc(C#Cc2cnc(N3CC4CCC(C3)N4C3COC3)nc2)cc1)[C@H](CN(Cc1c(F)cc(-c2ccn(C(F)F)n2)cc1F)NC(=O)[C@@H](NC(=O)OC)C(C)(C)C(F)(F)F)OC(=O)CC(C)(C)c1c(CC(=O)NCc2ccc(C#N)cc2)cc(C)cc1OP(=O)(O)O)C(C)(C)C(F)(F)F [Example 51, (5S,10S,11S,14S)-8-(4-(1-(difluoromethyl)-1H-pyrazol-3-yl)-2,6-difluorobenzyl)-11-(4-((2-(8-(oxetan-3-yl)-3,8-diazabicyclo[3.2.1]octan-3-yl)pyrimidin-5-yl)ethynyl)benzyl)-3,6,13,16-tetraoxo-5,14-bis(1,1,1-trifluoro-2-methylpropan-2-yl)-2,17-dioxa-4,7,8,12,15-pentaazaoctadecan-10-yl 3-(2-(2-((4-cyanobenzyl)amino)-2-oxoethyl)-4-methyl-6-(phosphonooxy)phenyl)-3-methylbutanoate] | 2331.5 nM | 8.29 h | 6.71 h | 7.98 h | < 1000 µg/mL | 636 nM |  |  |  |  |  |  |  | 
6 | COC(=O)N[C@H](C(=O)N[C@@H](Cc1ccc(C#Cc2cnc(N3CC4CCC(C3)N4C3COC3)nc2)cc1)[C@H](CN(Cc1c(F)cc(-c2ccn(C(F)F)n2)cc1F)NC(=O)[C@@H](NC(=O)OC)C(C)(C)C(F)(F)F)OC(=O)CC(C)(C)c1c(CC(=O)N[C@@H](CCS(=O)(=O)O)C(=O)O)cc(C)cc1OP(=O)(O)O)C(C)(C)C(F)(F)F [Example 33] | 1487.1 nM | 1.51 h | 5.71 h | 3.72 h | 4240 µg/mL (≈ 2570 µM) | 65.7 nM |  |  |  |  |  |  |  | 
7 | COC(=O)N[C@H](C(=O)N[C@@H](Cc1ccc(C#Cc2cnc(N3CC4CCC(C3)N4C3COC3)nc2)cc1)[C@H](CN(Cc1c(F)cc(-c2ccn(C(F)F)n2)cc1F)NC(=O)[C@@H](NC(=O)OC)C(C)(C)C(F)(F)F)OC(=O)CC(C)(C)c1c(CC(=O)N2CC[C@@H](C(=O)O)C2)cc(C)cc1OP(=O)(O)O)C(C)(C)C(F)(F)F [Example 112] | 1708.7 nM | 6.05 h | 6.53 h | 9.55 h | 3790 µg/mL (≈ 2400 µM) | 224 nM |  |  |  |  |  |  |  | 
8 | COC(=O)N[C@H](C(=O)N[C@@H](Cc1ccc(C#Cc2cnc(N3CC4CCC(C3)N4C3COC3)nc2)cc1)[C@H](CN(Cc1c(F)cc(-c2ccn(C(F)F)n2)cc1F)NC(=O)[C@@H](NC(=O)OC)C(C)(C)C(F)(F)F)OC(=O)CC(C)(C)c1c(CC(=O)N[C@@H](CCC(=O)O)C(=O)O)cc(C)cc1OP(=O)(O)O)C(C)(C)C(F)(F)F [Example 66] | 1908 nM | 0.912 h | 4.86 h | 3.19 h | 3890 µg/mL (≈ 2410 µM) | 164 nM | 9.4 % of total | 197.1 nM | 965.9 nM | 68.6% | 367.6 nM | 26% |  | 
9 | COC(=O)N[C@H](C(=O)N[C@@H](Cc1ccc(C#Cc2cnc(N3CC4CCC(C3)N4C3COC3)nc2)cc1)[C@H](CN(Cc1c(F)cc(-c2ccn(C(F)F)n2)cc1F)NC(=O)[C@@H](NC(=O)OC)C(C)(C)C(F)(F)F)OC(=O)CC(C)(C)c1c(CC(=O)Nc2ccc(OC)c(S(=O)(=O)O)c2)cc(C)cc1OP(=O)(O)O)C(C)(C)C(F)(F)F [Example 107] | 1468.1 nM | 2.21 h | 6.36 h | 4.11 h | 3440 µg/mL (≈ 2060 µM) | 317 nM |  |  |  |  |  |  |  | 
10 | COC(=O)N[C@H](C(=O)N[C@@H](Cc1ccc(C#Cc2cnc(N3CC4CCC(C3)N4C3COC3)nc2)cc1)[C@H](CN(Cc1c(F)cc(-c2ccn(C(F)F)n2)cc1F)NC(=O)[C@@H](NC(=O)OC)C(C)(C)C(F)(F)F)OC(=O)CC(C)(C)c1c(CC(=O)NCc2cccc(C(=O)O)c2)cc(C)cc1OP(=O)(O)O)C(C)(C)C(F)(F)F [Example 53] | 2028.9 nM | 2.41 h | 9.76 h | 3.4 h | < 1000 µg/mL | 113 nM |  |  |  |  |  |  |  | 
